Here are results for eight compounds from US20120322728A1, “PPAR-SPARING THIAZOLIDINEDIONES AND COMBINATIONS FOR THE TREATMENT OF DIABETES MELLITUS AND OTHER METABOLIC DISEASES” (Metabolic Solutions Development Company, LLC, priority 2009, published 2012).

The subject of data set [1] is BAT precursor cells. In words: BAT differentiation: UCP1 protein by Western blot. The data set is classed as cell-based, mice. The note with it: BAT precursor cells treated with 0.1 to 10 μM for 7 days. How it is done:
Precursors of BAT are isolated from the interscapular adipose pad of either normal or diabetic mice and cultured in vitro as described below based on the modifications recited in Petrovic N, Shabalina I G, Timmons J A, Cannon B, Nedergaard J. Am. J. Physiol. Endocrinol. Metab. 295:E287-E296, 2008, hereby incorporated by reference.
The brown fat pads are pooled and minced, digested for 45 minutes in isolation buffer containing 0.15% (wt/vol) collagenase. The cell suspension is filtered through a 100 μm nylon filter and centrifuged at 200×g for 5 minutes. […]
Cells are then treated with the compounds, compound salts, or co-crystals thereof being assayed for BAT differentiation. […] The development of the BAT phenotype is assessed by direct measure of the uncoupling protein 1 (UCP1), which is emblematic of brown adipose cells.
Following treatment of the cells, the growth medium is aspirated, rinsed with PBS, and lysed with KHM buffer containing 1% Igepal CA-630, and a protease inhibitor cocktail. The lysate is centrifuged at 8,000×g for 5 minutes (4° C.), the supernatant containing the cell lysate is collected and total protein analyzed using the BCA method. […] Densitometry is conducted on the scanned films using ImageJ software and analyzed using GraphPad Prism software. […]
(In western blotting, separated proteins are transferred to a membrane and probed.)

Data set [2] concerns PGC-1α. In words: Expression of PGC-1α mRNA in precursor BAT cells with norepinephrine (quantitative PCR). The class given is cell-based, mice. Conditions: for PGC-1α mRNA in the presence of norepinephrine: 3 μM compound for seven days, then 1 μM norepinephrine for 2 hours. The protocol: Another example of the ability of augmented signaling between cyclic nucleotides and compounds of Formula I is shown by the effect on expression of PGC-1a, a known regulator of mitochondrial biogenesis. Increased numbers of mitochondria are predictive of utility for the reduction of body weight.
Precursor BAT cells were isolated as described above and treated with or without 3 μM compounds: 1.] Compound A: 5-(4-(2-(5-ethylpyridin-2-yl)-2-oxoethoxy)benzyl)-1,3-thiazolidine-2,4-dione; 2.] Compound C: 5-(4-(2R)-2-(5-ethylpyridin-2-yl)-2-hydroxyethoxyy)benzyl)-1,3-thiazolidine-2,4-dione; or Compound B: 5-(4-(2-(3-methoxyphenyl)-2-oxoethoxy)benzyl)-1,3-thiazolidine-2,4-dione for seven days followed by treatment with 1 μM norepinephrine for 2 hours. Total RNA was isolated from the cells and the RNA message (mRNA) for PGC-1α was measured by quantitative polymerase chain reactions.

A short description of data set [3]: AUC of compound related materials after oral dosing of Compound B forms. The class given is in vivo. The note with it: 250 mg free acid equivalents, formulated tablets, N=4 cynomolgus monkeys. How it is done: Referring to FIG. 8, the area under the curve (AUC) of compound related materials was compared following dosing of 250 mg of Compound B as powder in capsules of free acid (PIC), formulated tablets of micronized free acid, or formulated tablets of the Na or K salt of Compound B given at the same free acid equivalents. (N=4 cynomolgus monkeys). The formulated, compressed tablet also contained in each case approximately 40.5% lactose, 16.8% microcrystalline cellulose, 1.9% Croscarmellose sodium, 0.5% colloidal silicon dioxide, and 0.9% magnesium stearate.

Data set [4] can be described thus: Bioavailability of sodium salt of Compound A, crossover, oral capsule versus iv injection. The class given is in vivo. Conditions: 90 mg free base equivalents, 4 male cynomolgus monkeys. How it is done: The monkeys fasted overnight and were dosed by oral gavage washed down with 10 ml tap water. Blood samples were taken at 0.25, 0.5, 1, 2, 3, 4, 6, 9, 12, 24, and 48 hours after a single dosage was administered and assayed for drug related materials with a LCMS assay using an internal standard. 90 mg of drug was put in 00 gelatin capsules containing 90 mg of free base equivalents. This was compared to an iv injection of 2 ml/kg and 45 mg of free base solution in 50% hydroxypropyl b-cyclodextran. The absolute availability versus an iv injection was determined for both parent compound and major metabolite.

The test system of data set [5] is diabetic KKAy mouse. In words: Blood glucose lowering in diabetic KKAy mouse. The data set is classed as in vivo. The note with it: diabetic KKAy mice (N=6), gavage once daily, plasma glucose after 4 daily doses. How it is done: In these experiments, free base or sodium salt was given to diabetic KKAy mice (N=6) and blood glucose was measured after 4 days of daily treatment at the doses indicated. KKAy mice, 8-12 weeks of age, were given the doses of the compounds according to the dosages on the X axis of FIG. 9. The compounds were given by gavage once daily at 10 mg/kg. On the fifth day (after 4 daily doses at the levels show) a blood sample was taken to measure plasma glucose.

On to `CCc1ccc(C(=O)COc2ccc(CC3SC(=O)NC3=O)cc2)nc1` (stereo not shown) [5-(4-(2-(5-ethylpyridin-2-yl)-2-oxoethoxy)benzyl)-1,3-thiazolidine-2,4-dione], for which the “amount of UCP1 (Western blot)” value in data set [1] is on record as “dose-dependent increase”.

For the compound `CCc1ccc(C(=O)COc2ccc(CC3SC(=O)NC3=O)cc2)nc1` (stereo not shown) [Compound A, 5-(4-(2-(5-ethylpyridin-2-yl)-2-oxoethoxy)benzyl)-1,3-thiazolidine-2,4-dione], in data set [2], the “PGC-1α mRNA in the presence of norepinephrine” value (shortened to “PGC-1α mRNA in the presence”) was “increase”.

As to `COc1cccc(C(=O)COc2ccc(CC3SC(=O)NC3=O)cc2)c1` (stereo not shown) [Compound B, 5-(4-(2-(3-methoxyphenyl)-2-oxoethoxy)benzyl)-1,3-thiazolidine-2,4-dione], the “PGC-1α mRNA in the presence” value in data set [2] is “increase”.

Turning to `CCc1ccc([C@@H](O)COc2ccc(CC3SC(=O)NC3=O)cc2)nc1` (stereo partly shown) [Compound C], the “PGC-1α mRNA in the presence” value in data set [2] is “increase”.

As for `NC[C@H](O)c1ccc(O)c(O)c1` [norepinephrine, reference compound], in data set [2] (absence of compound (control), 1 μM norepinephrine for 2 hours), the “PGC-1α mRNA, norepinephrine alone” value is “did not produce an increase”.

Take `COc1cccc(C(=O)COc2ccc(CC3SC(=O)[N-]C3=O)cc2)c1.[K+]` (stereo not shown) [potassium salt of Compound B, Potassium 5-{4-[2-(3-methoxyphenyl)-2-oxoethoxy]benzyl}-2,4-dioxo-1,3-thiazolidin-3-ide]: in data set [3], the “bioavailability (AUC of compound related materials) versus free acid” value is given as “significantly higher bioavailability”.

Take `CCc1ccc(C(=O)COc2ccc(CC3SC(=O)[N-]C3=O)cc2)nc1.[Na+]` (stereo not shown) [sodium salt of Compound A, Sodium 5-{4-[2-(5-ethylpyridin-2-yl)-2-oxoethoxy]benzyl}-2,4-dioxo-1,3-thiazolidin-3-ide]: in data set [4], the “absolute bioavailability of major metabolite versus free base” value is given as “significantly higher bioavailability” and the “absolute bioavailability of parent compound versus free base” value was “significantly higher bioavailability”. The lowering blood glucose entry in data set [5] is recorded as “excellent dose response”.

Consider `COc1cccc(C(=O)COc2ccc(CC3SC(=O)[N-]C3=O)cc2)c1.[Na+]` (stereo not shown) [sodium salt of Compound B, Sodium 5-{4-[2-(3-methoxyphenyl)-2-oxoethoxy]benzyl}-2,4-dioxo-1,3-thiazolidin-3-ide], for which the “bioavailability (AUC of compound related materials) versus free acid” value in data set [3] is recorded as “significantly higher bioavailability”.
